Laboratory results reported in PubChem BioAssay AID504893 (The Scripps Research Institute Molecular Screening Center, 2011).

Molecular target: cAMP-dependent protein kinase type II-beta regulatory subunit (Homo sapiens) (UniProt P31323)
Test: activators of PKA-R2B holoenzyme, dose response, selectivity assay for PKA-R1A activator project, biochemical, fluorescence polarization, EC50, human R2B (AID 504893)
Settings: Cy5-IP20 fluorescence polarization activation

Sequence of cAMP-dependent protein kinase type II-beta regulatory subunit (Homo sapiens) (P31323 whole entry, looked up): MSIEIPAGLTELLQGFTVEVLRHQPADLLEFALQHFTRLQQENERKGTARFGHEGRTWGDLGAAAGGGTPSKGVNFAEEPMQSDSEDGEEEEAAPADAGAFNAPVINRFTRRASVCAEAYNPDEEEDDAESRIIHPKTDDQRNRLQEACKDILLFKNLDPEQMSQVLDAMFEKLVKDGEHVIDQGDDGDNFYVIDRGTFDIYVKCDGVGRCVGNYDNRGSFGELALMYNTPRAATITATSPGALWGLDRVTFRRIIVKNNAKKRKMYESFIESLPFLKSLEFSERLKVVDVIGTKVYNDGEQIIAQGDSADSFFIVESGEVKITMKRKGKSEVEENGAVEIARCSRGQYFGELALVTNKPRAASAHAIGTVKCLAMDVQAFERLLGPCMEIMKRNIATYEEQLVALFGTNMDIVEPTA

Structure (SMILES) | EC50
Nc1nc2c(nc(Br)n2[C@@H]2O[C@@H]3COP(=O)(O)O[C@H]3[C@H]2O)c(=O)[nH]1 | 2160 nM
CCOP1(=O)OCC2OC(n3cnc4c(N)ncnc43)C(O)C2O1 (stereo not given) | 3750 nM

More lines, in order of falling EC50, values ahead:

EC50 | Structure (SMILES)
9100 nM | CCCC(=O)Nc1ncnc2c1ncn2[C@@H]1O[C@@H]2OP(=O)(O)OC[C@H]2[C@H]1OC(=O)CCC
51.1 nM | Nc1ncnc2c1nc(Br)n2[C@@H]1O[C@@H]2COP(=O)(O)O[C@H]2[C@H]1O
50.5 nM | Nc1ncnc2c1nc(Sc1ccc(Cl)cc1)n2[C@@H]1O[C@@H]2COP(=O)(O)O[C@H]2[C@H]1O
